Each structure is given as a SMILES string. In brackets after ≈: the same amount, converted by molar mass.

By MIC is commonly meant the least concentration at which growth counts as inhibited. The term IC50 denotes the concentration needed to halve the response being measured. A higher IC50 goes with a need for much substance.

One data set relates to C. albicans ATCC 90028. The data set can be described thus: Antifungal MIC (CO-ADD), C. albicans. In kind it is cell-based. Conditions: Candida albicans, ATCC90028, top dose 32 µg/mL. As to the method:
(§1) For the antifungal assay, fungi strains were cultured for 3 days on YPD agar at 30 °C. A yeast suspension of 1 × 10^6 to 5 × 10^6 CFU/mL was prepared from five colonies. These stock suspensions were diluted with a yeast nitrogen base (YNB) (Becton Dickinson, 233520, New South Wales, Australia) broth to a final concentration of 2.5 × 10^3 CFU/mL. […] The plates were covered and incubated at 35 °C for 36 h without shaking. C. albicans MICs were determined by measuring the absorbance at OD530. For C. neoformans, resazurin was added at a 0.006% final concentration to each well and incubated for a further 3 h before the MICs were determined by measuring the absorbance at OD570–600. […] Fluconazole was used as a positive fungal inhibitor standard for C. albicans and C. neoformans. […] The quality control (QC) of the assays was determined by the antimicrobial controls and the Z′-factor (using positive and negative controls).
`COc1ccc2[nH]cc(C(=O)NCCCNCCCCCCCCNCCCNC(=O)c3c[nH]c4ccc(OC)cc34)c2c1` [Compound 14d]: the minimum inhibitory concentration (MIC) was more than 38 µM.

In turn, `COc1ccc2[nH]cc(C(=O)NCCCNCCCCCCCCCCNCCCNC(=O)c3c[nH]c4ccc(OC)cc34)c2c1.O=C(O)C(F)(F)F.O=C(O)C(F)(F)F` [Compound 14e] returned an MIC of more than 37 µM.

The test system of the next data set is K. pneumoniae ATCC 700603. Kind of data set: MIC, broth microdilution (CO-ADD), K. pneumoniae. The note with it: top dose 32 µg/mL.
On to `COc1ccc2[nH]cc(C(=O)NCCCNCCCCCCCCNCCCNC(=O)c3c[nH]c4ccc(OC)cc34)c2c1` [Compound 14d], for which the “MIC Kp” value is reported as more than 38 µM.

On to `COc1ccc2[nH]cc(C(=O)NCCCNCCCCCCCCCCNCCCNC(=O)c3c[nH]c4ccc(OC)cc34)c2c1.O=C(O)C(F)(F)F.O=C(O)C(F)(F)F` [Compound 14e], for which the “MIC Kp” value was more than 37 µM.

Another data set concerns P. aeruginosa ATCC 27853. Kind of data set: Doxycycline potentiation against P. aeruginosa. In kind it is cell-based, Pseudomonas aeruginosa. Conditions: doxycycline at 2 µg/mL (4.5 µM), P. aeruginosa ATCC 27853. The source says: (§2) These measurements were independently repeated in triplicate.
`COc1ccc2[nH]cc(C(=O)NCCCNCCCCCCCCNCCCNC(=O)c3c[nH]c4ccc(OC)cc34)c2c1` [Compound 14d]: the “Dox/Pa fold-change (intrinsic MIC / combination MIC)” value was more than 8 fold.

For `COc1ccc2[nH]cc(C(=O)NCCCNCCCCCCCCCCNCCCNC(=O)c3c[nH]c4ccc(OC)cc34)c2c1.O=C(O)C(F)(F)F.O=C(O)C(F)(F)F` [Compound 14e], the “Dox/Pa fold-change (intrinsic MIC / combination MIC)” value was 8 fold.

Still in this data set, the particulars now being: doxycycline at 2 µg/mL (4.5 µM), P. aeruginosa ATCC 27853, mean n = 3.
As to `COc1ccc2[nH]cc(C(=O)NCCCNCCCCCCCCNCCCNC(=O)c3c[nH]c4ccc(OC)cc34)c2c1` [Compound 14d], the “Dox/Pa: concentration required to restore doxycycline activity (combination MIC)” value was 30.0 µM.

For `COc1ccc2[nH]cc(C(=O)NCCCNCCCCCCCCCCNCCCNC(=O)c3c[nH]c4ccc(OC)cc34)c2c1.O=C(O)C(F)(F)F.O=C(O)C(F)(F)F` [Compound 14e], the “Dox/Pa: concentration required to restore doxycycline activity (combination MIC)” value was 29.0 µM.

Another data set concerns C. neoformans ATCC 208821. The data set can be described thus: Antifungal MIC (CO-ADD), C. neoformans. In kind it is cell-based. Conditions: Cryptococcus neoformans, ATCC208821, top dose 32 µg/mL. As to the method:
as §1
With `COc1ccc2[nH]cc(C(=O)NCCCNCCCCCCCCNCCCNC(=O)c3c[nH]c4ccc(OC)cc34)c2c1` [Compound 14d], the minimum inhibitory concentration (MIC) was not above 0.3 µM.

For `COc1ccc2[nH]cc(C(=O)NCCCNCCCCCCCCCCNCCCNC(=O)c3c[nH]c4ccc(OC)cc34)c2c1.O=C(O)C(F)(F)F.O=C(O)C(F)(F)F` [Compound 14e], the MIC was not above 0.29 µM.

A further data set has as its system human red blood cells. Kind of data set: Hemolytic assay. In kind it is cell-based. Conditions: 10% hemolytic activity, mean n = 2. As to the method: Human whole blood was washed three times with three volumes of 0.9% NaCl and then resuspended in the same solution to a concentration of 0.5 × 10^8 cells/mL, as determined by the manual cell count in a Neubauer hemocytometer. The washed cells were then added to the 384-well compound-containing plates for a final volume of 50 μL. After a 10 min shake on a plate shaker, the plates were then incubated for 1 h at 37 °C. After incubation, the plates were centrifuged at 1000× g for 10 min to pellet cells and debris; 25 μL of the supernatant was then transferred to a polystyrene 384-well assay plate. Hemolysis was determined by measuring the supernatant absorbance at […] (OD405). The absorbance was measured using a Tecan M1000 Pro monochromator plate reader. HC10 and HC50 (concentrations at 10% and 50% hemolysis, respectively) were calculated by a curve fitting the inhibition values vs. log (concentration) using a sigmoidal dose–response function with variable fitting values for the top, bottom, and slope.
In the case of `COc1ccc2[nH]cc(C(=O)NCCCNCCCCCCCCNCCCNC(=O)c3c[nH]c4ccc(OC)cc34)c2c1` [Compound 14d], the “Hemolysis HC10” value is recorded as more than 38 µM.

Consider `COc1ccc2[nH]cc(C(=O)NCCCNCCCCCCCCCCNCCCNC(=O)c3c[nH]c4ccc(OC)cc34)c2c1.O=C(O)C(F)(F)F.O=C(O)C(F)(F)F` [Compound 14e], for which the “Hemolysis HC10” value was more than 37 µM.

System in the next data set: not listed separately
Kind of data set: Cytotoxicity assay (resazurin). It is filed as cell-based. Conditions: human, HEK293 cells, mean n = 2. (In general: Alamar Blue is a resazurin reagent that responds to reducing activity.)
With `COc1ccc2[nH]cc(C(=O)NCCCNCCCCCCCCNCCCNC(=O)c3c[nH]c4ccc(OC)cc34)c2c1` [Compound 14d], the 50% inhibitory concentration (IC50) at 20 h was more than 38 µM.

For the molecule `COc1ccc2[nH]cc(C(=O)NCCCNCCCCCCCCCCNCCCNC(=O)c3c[nH]c4ccc(OC)cc34)c2c1.O=C(O)C(F)(F)F.O=C(O)C(F)(F)F` [Compound 14e], the concentration for half-maximal inhibition (IC50) at 20 h is more than 37 µM.

Another data set relates to S. aureus ATCC 25923. The data set can be described thus: MIC, broth dilution, S. aureus. It is filed as cell-based, Staphylococcus aureus. Conditions: Staphylococcus aureus, ATCC25923; S. aureus ATCC 25923, 18 h; read-out: MIC Sa.
Turning to `COc1ccc2[nH]cc(C(=O)NCCCNCCCCCCCCNCCCNC(=O)c3c[nH]c4ccc(OC)cc34)c2c1` [Compound 14d], the MIC stood at 60 µM (≈ 36.3 µg/mL).

Turning to `COc1ccc2[nH]cc(C(=O)NCCCNCCCCCCCCCCNCCCNC(=O)c3c[nH]c4ccc(OC)cc34)c2c1.O=C(O)C(F)(F)F.O=C(O)C(F)(F)F` [Compound 14e], the minimum inhibitory concentration (MIC) amounted to 29 µM.

The subject of the next data set is P. aeruginosa ATCC 27853. Kind of data set: MIC, broth dilution, P. aeruginosa. It is filed as cell-based, Pseudomonas aeruginosa. The note with it: Pseudomonas aeruginosa, ATCC27853; P. aeruginosa ATCC 27853, 18 h; read-out: MIC Pa. In general terms: Dilution methods test growth across graded concentrations, often in twofold steps.
As for `COc1ccc2[nH]cc(C(=O)NCCCNCCCCCCCCNCCCNC(=O)c3c[nH]c4ccc(OC)cc34)c2c1` [Compound 14d], the MIC is more than 240 µM.

`COc1ccc2[nH]cc(C(=O)NCCCNCCCCCCCCCCNCCCNC(=O)c3c[nH]c4ccc(OC)cc34)c2c1.O=C(O)C(F)(F)F.O=C(O)C(F)(F)F` [Compound 14e]: the MIC worked out at 232 µM.

The subject of a further data set is MRSA ATCC 43300. The data set can be described thus: MIC, broth microdilution (CO-ADD), MRSA. It is filed as cell-based, methicillin-resistant S. aureus. Conditions: Staphylococcus aureus; MRSA ATCC 43300; top dose 32 µg/mL; read-out: MIC MRSA.
Turning to `COc1ccc2[nH]cc(C(=O)NCCCNCCCCCCCCNCCCNC(=O)c3c[nH]c4ccc(OC)cc34)c2c1` [Compound 14d], the MIC turned out to be 19.2 µM (≈ 11.6 µg/mL).

Take `COc1ccc2[nH]cc(C(=O)NCCCNCCCCCCCCCCNCCCNC(=O)c3c[nH]c4ccc(OC)cc34)c2c1.O=C(O)C(F)(F)F.O=C(O)C(F)(F)F` [Compound 14e]: the MIC was not above 0.29 µM.

A further data set concerns E. coli ATCC 25922. Kind of data set: MIC, broth dilution, E. coli. It is filed as cell-based, Escherichia coli. The note with it: Escherichia coli, ATCC25922; E. coli ATCC 25922, 18 h.
For `COc1ccc2[nH]cc(C(=O)NCCCNCCCCCCCCNCCCNC(=O)c3c[nH]c4ccc(OC)cc34)c2c1` [Compound 14d], the MIC is 120 µM (≈ 72.6 µg/mL).

Regarding `COc1ccc2[nH]cc(C(=O)NCCCNCCCCCCCCCCNCCCNC(=O)c3c[nH]c4ccc(OC)cc34)c2c1.O=C(O)C(F)(F)F.O=C(O)C(F)(F)F` [Compound 14e], the lowest concentration to inhibit growth (MIC) was 58.1 µM.

The next data set relates to E. coli ATCC 25922. Kind of data set: Erythromycin potentiation against E. coli. Conditions: erythromycin at 2 µg/mL (2.7 µM), E. coli. In kind it is cell-based, Escherichia coli.
Description: as §2
As to `COc1ccc2[nH]cc(C(=O)NCCCNCCCCCCCCNCCCNC(=O)c3c[nH]c4ccc(OC)cc34)c2c1` [Compound 14d], the “Erythro/Ec fold-change (intrinsic MIC / combination MIC)” value is listed as 0.5 fold.

Regarding `COc1ccc2[nH]cc(C(=O)NCCCNCCCCCCCCCCNCCCNC(=O)c3c[nH]c4ccc(OC)cc34)c2c1.O=C(O)C(F)(F)F.O=C(O)C(F)(F)F` [Compound 14e], the “Erythro/Ec fold-change (intrinsic MIC / combination MIC)” value came to 0.5 fold.

The same data set, now with this note: erythromycin at 2 µg/mL (2.7 µM), mean n = 3.
Regarding `COc1ccc2[nH]cc(C(=O)NCCCNCCCCCCCCNCCCNC(=O)c3c[nH]c4ccc(OC)cc34)c2c1` [Compound 14d], the “Erythro/Ec: concentration required to restore erythromycin activity (combination MIC)” value turned out to be 240 µM.

Take `COc1ccc2[nH]cc(C(=O)NCCCNCCCCCCCCCCNCCCNC(=O)c3c[nH]c4ccc(OC)cc34)c2c1.O=C(O)C(F)(F)F.O=C(O)C(F)(F)F` [Compound 14e]: the “Erythro/Ec: concentration required to restore erythromycin activity (combination MIC)” value is listed as 116 µM.

The next data set has as its system A. baumannii ATCC 19606. Kind of data set: MIC, broth microdilution (CO-ADD), A. baumannii. In kind it is cell-based, Acinetobacter baumannii. The note with it: Acinetobacter baumannii, ATCC19606, top dose 32 µg/mL.
As for `COc1ccc2[nH]cc(C(=O)NCCCNCCCCCCCCNCCCNC(=O)c3c[nH]c4ccc(OC)cc34)c2c1` [Compound 14d], the minimum inhibitory concentration (MIC) is more than 38 µM.

Regarding `COc1ccc2[nH]cc(C(=O)NCCCNCCCCCCCCCCNCCCNC(=O)c3c[nH]c4ccc(OC)cc34)c2c1.O=C(O)C(F)(F)F.O=C(O)C(F)(F)F` [Compound 14e], the minimum inhibitory concentration (MIC) is more than 37 µM.

Values taken from PMC10967822, “Antimicrobial Indole-3-Carboxamido-Polyamine Conjugates Target Bacterial Membranes and Are Antibiotic Potentiators” (Biomolecules, 2024).
